For 8 compounds, TGI results are on record in PubChem BioAssay (NCI).

Structures are written as SMILES.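 Step 1: Grow cells in 96-well plates. Step 2: Expose to compound for 48 hours at 5 concentrations. Step 3: Interpolate endpoints linearly; if unreached, use highest concentration. TGI: concentration producing complete growth inhibition.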

Among the test systems are NCI-H460 lung; MOLT-4 leukemia; SF-295 CNS; UACC-62 melanoma; SF-268 CNS; ACHN renal; SK-MEL-2 melanoma; NCI/ADR-RES ovarian; PC-3 prostate; K-562 leukemia; SNB-75 CNS; SW-620 colon; SN12C renal; U251 CNS; LOX IMVI melanoma; OVCAR-3 ovarian; COLO 205 colon; CCRF-CEM leukemia; NCI-H23 lung; HCC-2998 colon.
Common to all, as to test: NCI tumour cell line growth inhibition, 48 h

For `CC1(C)CCCCCCC2CC2CCCCCC(C)(C)C1=O` (stereo not drawn), the TGI with NCI-H460 lung, in the experiment with MOLT-4 leukemia, in the experiment on SF-295 CNS, in the experiment with UACC-62 melanoma, in the experiment on SF-268 CNS and in the experiment on ACHN renal was above 100 µM each time. In addition, the TGI with SK-MEL-2 melanoma was above 100 µM; in the experiment with NCI/ADR-RES ovarian, above 100 µM; in the experiment with PC-3 prostate, above 100 µM; in the experiment on K-562 leukemia it was 98.1 µM; in the experiment on SNB-75 CNS, above 100 µM; in the experiment on SW-620 colon, above 100 µM. Besides, the TGI was above 100 µM with SN12C renal; above 100 µM with U251 CNS; 63.6 µM with LOX IMVI melanoma; above 100 µM with OVCAR-3 ovarian; above 100 µM in the experiment with COLO 205 colon; 39.4 µM with CCRF-CEM leukemia. In the experiment on NCI-H23 lung, this compound yielded a TGI above 100 µM.
Turning to `Cc1sc(Nc2ccccc2[N+](=O)[O-])c(C#N)c1C`, the TGI with NCI-H460 lung is above 100 µM; in the experiment with MOLT-4 leukemia it was above 100 µM; in the experiment with SF-295 CNS it was above 100 µM; in the experiment on HCC-2998 colon, above 100 µM; in the experiment with UACC-62 melanoma it was above 100 µM; in the experiment on SF-268 CNS, 61.8 µM. The TGI in the experiment with ACHN renal is above 100 µM; in the experiment with NCI/ADR-RES ovarian, 96.6 µM; in the experiment on PC-3 prostate, above 100 µM; in the experiment with K-562 leukemia, above 100 µM; in the experiment with SNB-75 CNS, 39.9 µM; in the experiment on SN12C renal it was above 100 µM. The TGI was 62.6 µM with U251 CNS; 61.2 µM in the experiment on OVCAR-3 ovarian; above 100 µM in the experiment with COLO 205 colon; above 100 µM with CCRF-CEM leukemia; 44.8 µM in the experiment with NCI-H23 lung.
`COC(=O)c1cnn2c1ccc1ccccc12`: the TGI with NCI-H460 lung, in the experiment with MOLT-4 leukemia, with SF-295 CNS, in the experiment with UACC-62 melanoma, in the experiment on SF-268 CNS and in the experiment on ACHN renal was above 100 µM each time. Further, the TGI with SK-MEL-2 melanoma, in the experiment on NCI/ADR-RES ovarian, in the experiment on PC-3 prostate, with K-562 leukemia, in the experiment with SNB-75 CNS and in the experiment on SW-620 colon was above 100 µM each time. The TGI with SN12C renal, in the experiment with U251 CNS, in the experiment on LOX IMVI melanoma, in the experiment on OVCAR-3 ovarian, in the experiment with COLO 205 colon and in the experiment with CCRF-CEM leukemia was above 100 µM in each case. In addition, the TGI with NCI-H23 lung was above 100 µM.
In the case of `OCCCc1cc(O)c2c(c1)C(CO)C(c1ccc(O)c(O)c1)O2` (stereo not drawn), the TGI in the experiment on NCI-H460 lung, in the experiment with MOLT-4 leukemia, in the experiment with SF-295 CNS, in the experiment on HCC-2998 colon, in the experiment with UACC-62 melanoma and in the experiment on SF-268 CNS was above 100 µM in each case. Also, the TGI in the experiment with ACHN renal, with SK-MEL-2 melanoma, with NCI/ADR-RES ovarian, with PC-3 prostate, in the experiment on K-562 leukemia and in the experiment on SW-620 colon was above 100 µM in each case. For the same compound, the TGI with SN12C renal, in the experiment with U251 CNS, with LOX IMVI melanoma, in the experiment with OVCAR-3 ovarian, in the experiment on COLO 205 colon and with CCRF-CEM leukemia was above 100 µM throughout. In the experiment on NCI-H23 lung, this compound gave a TGI above 100 µM.
In the case of `CC(C)n1c(=O)[nH]n(-c2ccccc2)c1=O`, the TGI in the experiment on NCI-H460 lung, in the experiment on MOLT-4 leukemia, in the experiment with SF-295 CNS, with UACC-62 melanoma, with SF-268 CNS and with ACHN renal was above 100 µM in each case. Moreover, the TGI in the experiment on SK-MEL-2 melanoma, with NCI/ADR-RES ovarian, with PC-3 prostate, with K-562 leukemia, in the experiment on SNB-75 CNS and with SW-620 colon was above 100 µM in each case. Also, the TGI in the experiment with SN12C renal, in the experiment with U251 CNS, in the experiment with LOX IMVI melanoma, in the experiment on OVCAR-3 ovarian, with COLO 205 colon and in the experiment on CCRF-CEM leukemia was above 100 µM each time. The TGI in the experiment with NCI-H23 lung was above 100 µM.
On to `C/C(=N\Nc1nc2ccccc2s1)c1cnccn1`, for which the TGI in the experiment with NCI-H460 lung is 15 µM; with SF-295 CNS it was above 23.5 µM; in the experiment with HCC-2998 colon, 31.9 µM; with UACC-62 melanoma it was above 60.6 µM; in the experiment on SF-268 CNS it was above 22.7 µM; in the experiment with ACHN renal it was 21.1 µM. Besides, the TGI in the experiment with SK-MEL-2 melanoma is 49.9 µM; in the experiment on NCI/ADR-RES ovarian, 4.88 µM; in the experiment on PC-3 prostate, above 67.4 µM; in the experiment with K-562 leukemia, above 34.1 µM; in the experiment with SNB-75 CNS, above 31.3 µM; in the experiment with SW-620 colon, above 100 µM. For the same compound, the TGI with SN12C renal is above 80.8 µM; with U251 CNS, above 100 µM; in the experiment with OVCAR-3 ovarian it was 17.4 µM; with COLO 205 colon, above 36.9 µM; in the experiment with CCRF-CEM leukemia, above 100 µM; with NCI-H23 lung it was 12.3 µM.
As to `COC(=O)Cc1c(/C=C/C(C)(C)n2cnc(CCN3C(=O)CCC3=O)c2)[nH]c2ccccc12`, the TGI with NCI-H460 lung, with MOLT-4 leukemia, in the experiment on SF-295 CNS, with UACC-62 melanoma, in the experiment on SF-268 CNS and in the experiment with ACHN renal was above 100 µM each time. Further, the TGI with SK-MEL-2 melanoma, with NCI/ADR-RES ovarian, in the experiment on PC-3 prostate, in the experiment on K-562 leukemia, in the experiment with SNB-75 CNS and in the experiment with SW-620 colon was above 100 µM throughout. For the same compound, the TGI in the experiment with SN12C renal, in the experiment with U251 CNS, with LOX IMVI melanoma, with OVCAR-3 ovarian, with COLO 205 colon and with CCRF-CEM leukemia was above 100 µM throughout. In the experiment with NCI-H23 lung, this compound yielded a TGI above 100 µM.
Take `CC(CO)(CBr)COC(=O)c1cc(Br)c(N)c(Br)c1` (stereo not drawn): the TGI in the experiment on MOLT-4 leukemia, in the experiment on SF-295 CNS, in the experiment on HCC-2998 colon, with UACC-62 melanoma, in the experiment with SF-268 CNS and with ACHN renal was above 100 µM in each case. Also, the TGI in the experiment with SK-MEL-2 melanoma, in the experiment with NCI/ADR-RES ovarian, in the experiment on PC-3 prostate, with K-562 leukemia, in the experiment with SW-620 colon and in the experiment on SN12C renal was above 100 µM each time. The TGI with U251 CNS, in the experiment with LOX IMVI melanoma, in the experiment with OVCAR-3 ovarian, in the experiment on COLO 205 colon, in the experiment on CCRF-CEM leukemia and in the experiment with NCI-H23 lung was above 100 µM each time.
